Assay results from ChEMBL document CHEMBL1201862, “PubChem BioAssay data set” (2004).
The source made the active and inactive calls.

Columns and labels:
[1] = Trypanosoma cruzi growth suppression in host cells – NIH3T3 host cells, beta-gal luminescence, confirmation (AID 2044); assay type: functional, cell-based;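 further: intracellular parasites grown in NIH/3T3 mouse fibroblasts as host cells; luminescent beta-galactosidase reporter signal from transgenic T. cruzi replicating inside host cells; inhibitors lower the luminescence signal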
[2] = NIH3T3 cell viability loss – ATP luminescence, mouse fibroblasts, counter-screen, dose response (AID 2010); assay type: functional, cell-based;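 further: cells exposed to compound for about 90 hours before reading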
Cytochrome P450 2C9 = Cytochrome P450 2C9 (Homo sapiens, UniProt P11712)
Streptococcus = experiment: GAS UMAA2166 growth inhibition – luminescence, BacTiterGlo, counter-screen for streptokinase expression inhibitor project, dose response (AID 1915); assay type: functional, organism-based;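 further: potency for reduction of bacterial viability or growth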
[3] = tested on: Streptococcus sp. 'group A'; experiment: Streptococcus pyogenes SK(-)GAS viability under kanamycin – luminescence, BacTiterGlo, confirmation, counter-screen for streptokinase expression inhibitor project, dose response (AID 1900); assay type: functional, organism-based
Cytochrome P450 2C19 = Cytochrome P450 2C19 (Homo sapiens, UniProt P33261); experiment: Cytochrome panel assay with activity outcomes. Panel member name: p450-cyp2c19 Compounds with AC50 equal or less than 10 uM are considered active; assay type: functional
[4] = Luminescence Cell-Based Dose Response HTS to Identify Activators of Luciferase Translation or Activity in H4 […] Cells. [Related pubchem assays: 1829 (Project Summary), 1814 (Primary HTS)]; assay type: functional

Chain of Cytochrome P450 2C19 (P33261 whole entry): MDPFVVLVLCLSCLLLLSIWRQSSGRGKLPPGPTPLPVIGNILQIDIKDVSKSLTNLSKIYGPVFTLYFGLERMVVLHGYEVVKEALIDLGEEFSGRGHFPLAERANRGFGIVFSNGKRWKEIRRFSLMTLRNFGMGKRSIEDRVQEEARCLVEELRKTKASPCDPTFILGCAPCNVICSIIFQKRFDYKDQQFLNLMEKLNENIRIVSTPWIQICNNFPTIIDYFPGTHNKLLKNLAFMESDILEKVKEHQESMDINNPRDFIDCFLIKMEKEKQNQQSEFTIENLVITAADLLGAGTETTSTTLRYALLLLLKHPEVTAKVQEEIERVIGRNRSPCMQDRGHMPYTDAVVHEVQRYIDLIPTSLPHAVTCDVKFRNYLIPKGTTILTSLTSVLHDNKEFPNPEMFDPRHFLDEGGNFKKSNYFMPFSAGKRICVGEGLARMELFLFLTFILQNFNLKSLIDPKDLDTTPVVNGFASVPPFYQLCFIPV
Chain of Cytochrome P450 2C9 (P11712 whole entry): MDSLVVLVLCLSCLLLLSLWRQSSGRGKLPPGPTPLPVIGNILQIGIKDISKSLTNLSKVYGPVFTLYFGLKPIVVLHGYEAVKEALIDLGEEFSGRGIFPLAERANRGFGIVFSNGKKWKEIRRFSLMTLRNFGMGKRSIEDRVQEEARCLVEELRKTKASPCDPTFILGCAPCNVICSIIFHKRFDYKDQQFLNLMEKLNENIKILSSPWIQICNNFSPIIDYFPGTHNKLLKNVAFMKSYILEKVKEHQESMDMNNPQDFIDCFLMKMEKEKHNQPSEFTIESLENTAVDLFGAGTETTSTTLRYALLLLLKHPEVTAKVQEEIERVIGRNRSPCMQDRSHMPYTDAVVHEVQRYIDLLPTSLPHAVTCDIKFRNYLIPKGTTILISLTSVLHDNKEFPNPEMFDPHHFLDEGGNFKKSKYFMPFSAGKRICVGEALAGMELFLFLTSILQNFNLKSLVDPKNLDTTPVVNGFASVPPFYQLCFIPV

SMILES | EC50 [1] | EC50 [2] | further results
COc1cc(-c2cc(-c3ccccc3)nc(SCC(=O)Nc3nccs3)c2C#N)cc(OC)c1OC | 1.72 µM (active) | > 30 µM (not active) | 
COc1ccc(-c2csc3ncnc(N4CCN(S(=O)(=O)c5cccc(Br)c5)CC4)c23)cc1 | 1.71 µM (active) | > 60 µM (not active) | 
CCOC(=O)C1=C(c2ccccc2)Nc2ncnn2C1c1ccc(OC)c(OC)c1OC (configuration not stated) | 1.84 µM (active) | > 60 µM (not active) | 
COc1ccccc1N(CC(O)Cn1c2ccccc2c2ccccc21)S(=O)(=O)c1ccccc1 (configuration not stated) | 2.21 µM (active) | > 60 µM (not active) | 
CCn1c(SCC(=O)NC2CCCc3ccccc32)nnc1-c1cccs1 (configuration not stated) |  |  | AC50 (Cytochrome P450 2C9): 4.47 µM (inconclusive)
COc1ccc(/C=C/c2ccc3cccc(O)c3n2)c(OC)c1OC |  |  | EC50 (Streptococcus): 6.25 µM (active); EC50 [3]: 4.85 µM (active)
Cc1ccccc1/C=N\NC(=O)c1csnn1 |  |  | AC50 (Cytochrome P450 2C19; read-out: AC50): 11.2 µM (inconclusive)
O=C(Nc1nc(-c2ccccc2)cs1)C1CCCN(S(=O)(=O)c2cccc([N+](=O)[O-])c2)C1 (configuration not stated) | 0.173 µM (active) | > 60 µM (not active) | 
COc1ccc([C@H]2/C=C\CN(S(=O)(=O)c3ccc4ccccc4c3)[C@@H](C)C(=O)N2Cc2ccc(F)cc2)cc1 | 2.03 µM (active) | > 60 µM (not active) | 
C/C(=N/O)c1ccc2cc(Br)c3ccccc3c2c1 |  |  | AC50 (Cytochrome P450 2C19; read-out: AC50): 1 µM (inconclusive)
COc1ccc(CCn2c(-c3cc([N+](=O)[O-])cc([N+](=O)[O-])c3)nc3nc4ccccc4nc32)cc1 | 0.157 µM (active) | > 60 µM (not active) | 
COc1ccccc1-c1nc(NCc2cccs2)c2ccccc2n1 |  |  | AC50 (Cytochrome P450 2C19; read-out: AC50): 20 µM (inconclusive)
Cc1ccc(NC(=O)NNS(=O)(=O)c2ccc(Br)cc2)cc1 |  |  | AC50 (Cytochrome P450 2C9): 1 µM (inconclusive)
CCCCCCNC=C1C(=O)N(C)C(=O)N(C)C1=O |  |  | AC50 (Cytochrome P450 2C9): 14.1 µM (inconclusive); AC50 (Cytochrome P450 2C19; read-out: AC50): 15.8 µM (inconclusive)
CCOc1cc(/C=C2\N=C(C)OC2=O)cc(Br)c1OCC(=O)OC |  |  | AC50 (Cytochrome P450 2C9): 25.1 µM (inconclusive)
CCOC(=O)c1cc2c(=O)n3ccccc3nc2n(CCCOC)/c1=N\C(C)=O |  |  | AC50 (Cytochrome P450 2C9): 20 µM (inconclusive)
Cc1cc(C)c(C#N)c(SCC(=O)C(C)(C)C)n1 | 1.96 µM (active) | > 60 µM (not active) | 
COc1ccccc1CCn1c(=O)c(C)nc2cncnc21 |  |  | AC50 (Cytochrome P450 2C9): 31.6 µM (inconclusive)
Oc1c(N=NC(S)=Nc2ccccc2F)c2ccccc2n1Cc1ccc(Cl)cc1 | 1.06 µM (active) | 5.85 µM (active) | 
Fc1ccc(COc2cccc(CNCc3ccncc3)c2)cc1 | 6.99 µM (active) | > 60 µM (not active) | 
COc1cccc(C2c3c(C)nn(-c4ccc([N+](=O)[O-])cc4)c3N=C3C(=O)Nc4ccccc4N32)c1 (configuration not stated) | 1.87 µM (active) | > 60 µM (not active) | 
O=C(Cc1ccccc1)NC(=S)Nc1ccc2oc(-c3ccccc3F)nc2c1 |  |  | EC50 [4]: 3.01 µM (active)
CC(C)(C)NC(=O)NC(=O)CSc1nnc2ccccn12 |  |  | AC50 (Cytochrome P450 2C9): 17.8 µM (inconclusive)
COc1ccc(C(C(=O)NC2CCCC2)N(C(=O)c2snc(-c3ccc(F)cc3)c2N)c2ccccc2)cc1 (configuration not stated) |  |  | AC50 (Cytochrome P450 2C9): 0.891 µM (inconclusive)
Cc1cc(C)c2cc(CN(Cc3cccnc3)C(=O)c3ccc(F)cc3)c(Cl)nc2c1 | 1.08 µM (active) | 5.07 µM (active) | 
O=C(Nc1ccc(N2CCOCC2)c(Cl)c1)c1ccc(Br)o1 |  |  | EC50 [4]: 0.113 µM (active)
Cc1cccc(CN2CCN(CCCc3ccccc3)CC2)c1 | 0.478 µM (active) | > 60 µM (not active) | 
C[C@@H](C(=O)NC1CCN(Cc2ccccc2)CC1)N1C(=O)N2CCc3c([nH]c4ccccc34)[C@@]2(C)C1=O | 0.299 µM (active) | > 60 µM (not active) | 
c1ccc(CCn2nnnc2C(c2cccnc2)N2CCN(c3nc4ccccc4s3)CC2)cc1 (configuration not stated) | 0.244 µM (active) | 31.2 µM (active) | 
O=C(O)CNC1=NC2(CCCC2)Cc2ccccc21 |  |  | AC50 (Cytochrome P450 2C19): inconclusive
